# From ChEMBL document CHEMBL1201862, “PubChem BioAssay data set” (2004)
#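 Exposure lasted 48 hours, with cells grown in 96-well plates and compounds tested at five concentrations. GI50: concentration for 50% inhibition of growth.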 Active and inactive are the calls of the source. No stated cut-off is given here; in the data, active = GI50 up to about 1.1 µM and inactive = higher.
# Experiments:
# Assay in all cases: NCI tumour cell line growth inhibition, 48 h
# 786-0 = system: 786-0
# CAKI-1 = system: CAKI-1
# CCRF-CEM = system: CCRF-CEM
# SK-MEL-28 = system: SK-MEL-28
# SF-268 = system: SF-268
# NCI/ADR-RES = system: NCI/ADR-RES
# SF-295 = system: SF-295
# PC-3 = system: PC-3
# HL-60 = system: HL-60
# SK-MEL-5 = system: SK-MEL-5
# OVCAR-3 = system: OVCAR-3
# NCI-H23 = system: NCI-H23
# Hs-578T = system: Hs-578T
# HOP-62 = system: HOP-62
# RXF 393 = system: RXF 393
# OVCAR-4 = system: OVCAR-4
# SK-MEL-2 = system: SK-MEL-2
# HCT-116 = system: HCT-116
# U-251 = system: U-251
# T47D = system: T47D
# SW-620 = system: SW-620
# UACC-62 = system: UACC-62
# MDA-N = system: MDA-N
# ACHN = system: ACHN
# OVCAR-5 = system: OVCAR-5
# HCT-15 = system: HCT-15
# TK-10 = system: TK-10
# NCI-H226 = system: NCI-H226
# OVCAR-8 = system: OVCAR-8
# NCI-H522 = system: NCI-H522
# LOX IMVI = system: LOX IMVI
# SN12C = system: SN12C
# MOLT-4 = system: MOLT-4
# DU-145 = system: DU-145
# MDA-MB-435 = system: MDA-MB-435
# MCF7 = system: MCF7
# UACC-257 = system: UACC-257
# SNB-75 = system: SNB-75
# RPMI-8226 = system: RPMI-8226
# UO-31 = system: UO-31
# HT-29 = system: HT-29
# KM12 = system: KM12
# HOP-92 = system: HOP-92
# NCI-H460 = system: NCI-H460
# SNB-19 = system: SNB-19
# IGROV-1 = system: IGROV-1
# M14 = system: M14
# HCC 2998 = system: HCC 2998
# SR = system: SR
# K562 = system: K562
# MDA-MB-231 = system: MDA-MB-231
# SK-OV-3 = system: SK-OV-3
# Malme-3M = system: Malme-3M
# A549 = system: A549
# BT-549 = system: BT-549
# EKVX = system: EKVX
# A498 = system: A498
# SF-539 = system: SF-539
# COLO 205 = system: COLO 205
smiles,measurement,setting,value
COC1=C(C(c2cc(OC)c(OC)c(OC)c2)c2cc3c(cc2OC)OCO3)C(=O)OC1 (stereo not drawn),GI50,786-0,26.1 µM (inactive)
same,GI50,CAKI-1,> 48.5 µM (inactive)
same,GI50,CCRF-CEM,21.4 µM (inactive)
same,GI50,SK-MEL-28,12.7 µM (inactive)
same,GI50,SF-268,24.6 µM (inactive)
same,GI50,NCI/ADR-RES,5.69 µM (inactive)
same,GI50,SF-295,15.1 µM (inactive)
same,GI50,PC-3,15.7 µM (inactive)
same,GI50,HL-60,8.55 µM (inactive)
same,GI50,SK-MEL-5,22.8 µM (inactive)
same,GI50,OVCAR-3,22.3 µM (inactive)
same,GI50,NCI-H23,24.8 µM (inactive)
same,GI50,Hs-578T,9.18 µM (inactive)
same,GI50,HOP-62,24.8 µM (inactive)
same,GI50,RXF 393,11.7 µM (inactive)
same,GI50,OVCAR-4,30.4 µM (inactive)
same,GI50,SK-MEL-2,45.2 µM (inactive)
same,GI50,HCT-116,7.01 µM (inactive)
same,GI50,U-251,33.3 µM (inactive)
same,GI50,T47D,> 100 µM (inactive)
same,GI50,SW-620,27 µM (inactive)
same,GI50,UACC-62,10.6 µM (inactive)
same,GI50,MDA-N,3.94 µM (inactive)
same,GI50,ACHN,26.7 µM (inactive)
same,GI50,OVCAR-5,34.4 µM (inactive)
same,GI50,HCT-15,20.4 µM
same,GI50,TK-10,> 44 µM (inactive)
same,GI50,NCI-H226,28.4 µM (inactive)
same,GI50,OVCAR-8,27 µM (inactive)
same,GI50,NCI-H522,7.8 µM (inactive)
same,GI50,LOX IMVI,10 µM (inactive)
same,GI50,SN12C,34.8 µM (inactive)
same,GI50,MOLT-4,44.2 µM (inactive)
same,GI50,DU-145,29.2 µM (inactive)
same,GI50,MDA-MB-435,4.66 µM (inactive)
same,GI50,MCF7,29 µM (inactive)
same,GI50,UACC-257,> 34.4 µM (inactive)
same,GI50,SNB-75,> 37.9 µM (inactive)
same,GI50,RPMI-8226,46 µM (inactive)
same,GI50,UO-31,14.2 µM (inactive)
same,GI50,HT-29,20.5 µM (inactive)
same,GI50,KM12,11.6 µM (inactive)
same,GI50,HOP-92,58.9 µM (inactive)
same,GI50,NCI-H460,29.2 µM (inactive)
same,GI50,SNB-19,30.7 µM (inactive)
same,GI50,IGROV-1,29.4 µM (inactive)
same,GI50,M14,17.9 µM (inactive)
same,GI50,HCC 2998,44.1 µM (inactive)
same,GI50,SR,11.1 µM (inactive)
same,GI50,K562,15 µM (inactive)
same,GI50,MDA-MB-231,28.6 µM (inactive)
same,GI50,SK-OV-3,41.2 µM (inactive)
same,GI50,Malme-3M,31.7 µM (inactive)
same,GI50,A549,20.1 µM (inactive)
same,GI50,BT-549,47.2 µM (inactive)
same,GI50,EKVX,28.4 µM (inactive)
same,GI50,A498,14.9 µM (inactive)
same,GI50,SF-539,15.4 µM (inactive)
same,GI50,COLO 205,23.8 µM (inactive)
CC(=O)Oc1ccc2c(c1)CC[C@@H]1C2[C@@H](O[N+](=O)[O-])C[C@@]2(C)C1CC[C@@H]2O (stereo partly drawn),GI50,786-0,33.8 µM (inactive)
same,GI50,CAKI-1,78 µM (inactive)
same,GI50,CCRF-CEM,22.1 µM (inactive)
same,GI50,SK-MEL-28,48.9 µM (inactive)
same,GI50,SF-268,32.6 µM (inactive)
same,GI50,NCI/ADR-RES,26.9 µM (inactive)
same,GI50,SF-295,35.5 µM (inactive)
same,GI50,PC-3,47.3 µM (inactive)
same,GI50,HL-60,9.2 µM (inactive)
same,GI50,SK-MEL-5,24.7 µM (inactive)
same,GI50,OVCAR-3,35.1 µM (inactive)
same,GI50,NCI-H23,42.9 µM (inactive)
same,GI50,Hs-578T,14.4 µM (inactive)
same,GI50,HOP-62,17.1 µM (inactive)
same,GI50,RXF 393,38.7 µM (inactive)
same,GI50,OVCAR-4,52.1 µM (inactive)
same,GI50,SK-MEL-2,32.1 µM (inactive)
same,GI50,HCT-116,29.4 µM (inactive)
same,GI50,U-251,27.6 µM (inactive)
same,GI50,T47D,47.4 µM (inactive)
same,GI50,SW-620,35.5 µM (inactive)
same,GI50,UACC-62,26.5 µM (inactive)
same,GI50,MDA-N,5.83 µM (inactive)
same,GI50,ACHN,61.1 µM (inactive)
same,GI50,OVCAR-5,33 µM (inactive)
same,GI50,HCT-15,28.9 µM
same,GI50,TK-10,49.8 µM (inactive)
same,GI50,NCI-H226,48.8 µM (inactive)
same,GI50,OVCAR-8,31.3 µM (inactive)
same,GI50,NCI-H522,21.1 µM (inactive)
same,GI50,LOX IMVI,27.7 µM (inactive)
same,GI50,SN12C,34.5 µM (inactive)
same,GI50,MOLT-4,24.5 µM (inactive)
same,GI50,DU-145,28.7 µM (inactive)
same,GI50,MDA-MB-435,7.31 µM (inactive)
same,GI50,MCF7,41 µM (inactive)
same,GI50,UACC-257,67.5 µM (inactive)
same,GI50,SNB-75,45.7 µM (inactive)
same,GI50,RPMI-8226,21 µM (inactive)
same,GI50,UO-31,43.9 µM (inactive)
same,GI50,HT-29,30.8 µM (inactive)
same,GI50,KM12,29.9 µM (inactive)
same,GI50,HOP-92,> 88.1 µM (inactive)
same,GI50,NCI-H460,35.3 µM (inactive)
same,GI50,SNB-19,35.6 µM (inactive)
same,GI50,IGROV-1,55.3 µM (inactive)
same,GI50,M14,28.3 µM (inactive)
same,GI50,HCC 2998,10.6 µM (inactive)
same,GI50,SR,16.4 µM (inactive)
same,GI50,K562,11.9 µM (inactive)
same,GI50,MDA-MB-231,39.1 µM (inactive)
same,GI50,SK-OV-3,62.5 µM (inactive)
same,GI50,Malme-3M,32.1 µM (inactive)
same,GI50,A549,37.3 µM (inactive)
same,GI50,BT-549,62.4 µM (inactive)
same,GI50,EKVX,16.8 µM (inactive)
same,GI50,A498,31.2 µM (inactive)
same,GI50,SF-539,25.6 µM (inactive)
same,GI50,COLO 205,50.8 µM (inactive)
